What all share (assay): DTP human tumour cell line panel, 48 h
In test [1] the test system is 786-0.
In test [2] the test system is ACHN.
Test [3] concerns COLO 205.
The test system of test [4] is DU-145.
The subject of test [5] is HOP-92.
The test system of test [6] is HT-29.
For test [7], the system named is K562.
In test [8] the test system is KM12.
For test [9], the system named is M14.
Test [10] concerns MDA-N.
Test [11] concerns NCI-H226.
The subject of test [12] is NCI-H23.
Test [13] relates to NCI-H522.
The test system of test [14] is NCI/ADR-RES.
In test [15] the test system is OVCAR-8.
In test [16] the test system is PC-3.
The subject of test [17] is SF-268.
Test [18] deals with SK-MEL-28.
Test [19] concerns SW-620.
The test system of test [20] is U-251.

The record followed here is ChEMBL document CHEMBL1201862, “PubChem BioAssay data set” (2004).

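Tested at 5 concentrations; 48 h exposure; 96-well plates; endpoints linearly interpolated, else capped at highest concentration. GI50 marks 50% less growth.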 Calls of active or inactive are those of the source. No stated cut-off is given here; in the data, active = GI50 up to about 1.1 µM and inactive = higher.

By GI50 is commonly meant the concentration at which growth is held to half of that of the control. With `COc1ccc(-n2c(Cn3nnc(-c4cccnc4)n3)nn(C3OC(COC(=O)c4ccccc4)C(OC(=O)c4ccccc4)C3OC(=O)c3ccccc3)c2=S)cc1` (stereo not given), the GI50 is > 100 µM (inactive) in [1]; > 100 µM (inactive) in test [2]; > 100 µM (inactive) in [3]; > 100 µM (inactive) in [4]; > 100 µM (inactive) in test [5]; 50.9 µM (inactive) in [6]. In addition, the GI50 in test [7] is > 100 µM (inactive); in [8], > 100 µM (inactive); in test [9], > 100 µM (inactive); in test [10] it was > 100 µM (inactive); in test [11], 14.2 µM (inactive); in test [12] it was > 100 µM (inactive). For the same compound, the GI50 in test [13], in test [14], in test [15], in test [16], in [17] and in test [18] was > 100 µM (inactive) in each case. Further, the GI50 in [19] and in test [20] was > 100 µM (inactive) in each case.
Regarding `CCC(C)N1CN(c2ccccc2)C2(CCN(CCCC3(c4ccc(F)cc4)OCCO3)CC2)C1=O` (stereo not given), the GI50 in test [1] was 5.53 µM (inactive); in test [2] it was 6.61 µM (inactive); in [3], 3.75 µM (inactive); in [4], 17.6 µM (inactive); in [5], < 0.01 µM (active); in test [6] it was 2.87 µM (inactive). Also, the GI50 was 8.24 µM (inactive) in test [7]; 20.6 µM (inactive) in [8]; 5.97 µM (inactive) in test [9]; 7.14 µM (inactive) in test [10]; 16.7 µM (inactive) in test [11]; 3.34 µM (inactive) in test [12]. The GI50 in [13] was 5.11 µM (inactive); in [14], 13.3 µM (inactive); in [15] it was 7.64 µM (inactive); in test [16] it was 6.05 µM (inactive); in test [17], 17.7 µM (inactive); in [18], 17.6 µM (inactive). Besides, the GI50 in test [19] is 11.6 µM (inactive); in test [20] it was 5.86 µM (inactive).
